Columns and labels:
KRAS G12C = KRAS G12C (Homo sapiens (Human), UniProt P01116, C118A/G12C); test: 2 h coupled exchange assay; assay type: biochemical; conditions: Avg 2 h Coupled exchange IC50, 2 h compound pre-incubation, SOS-mediated nucleotide exchange
Method: The term “2 h coupled exchange assay” or “20 h coupled exchange assay” as used herein refers to the assay described in the Section entitled “BIOLOGICAL EVALUATION.”

[1] = system: MIA PaCa-2 (human pancreatic carcinoma) cells; test: Cell Viability Assay (CellTiter-Glo), MIA PaCa-2; assay type: cell-based; conditions: Homo sapiens, MIA PaCa-2, 72 h
Method: Serially-diluted compound or DMSO was added to the cells, and plates were incubated at 37° C., 5% CO2 for 72 h. Cell viability was measured using a CellTiter-Glo® Luminescent Cell Viability Assay kit (Promega) according to the manufacturer's protocol. The luminescence signal of treated samples was normalized to DMSO control, and data were analyzed using a 4-parameter logistic model to calculate IC50 values.

[2] = system: A549 (human lung carcinoma) cells; test: Cell Viability Assay (CellTiter-Glo), A549; assay type: cell-based; conditions: Homo sapiens, A549, 72 h
How it was run: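 RPMI 1640/10% FBS; seed 1.67E+04 cells/mL, o/n 37° C., 5% CO2; serial-dilution cmpd 72 h; CellTiter-Glo luminescence vs DMSO; 4-parameter logistic fit → IC50.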

Sequence of KRAS G12C (P01116 other isoform, or with tags, fused parts or gaps G12C/C118A): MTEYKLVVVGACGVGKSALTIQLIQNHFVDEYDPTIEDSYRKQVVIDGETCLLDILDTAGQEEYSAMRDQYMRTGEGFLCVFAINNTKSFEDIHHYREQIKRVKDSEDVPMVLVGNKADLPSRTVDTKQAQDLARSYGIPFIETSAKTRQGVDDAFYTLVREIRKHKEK

IC50 (KRAS G12C) [nM]	IC50 [1] [nM]	IC50 [2] [nM]	SMILES
102	214	> 5000	C=CC(=O)N1CC2(CCN(c3nc4c(c(-c5cc(O)cc6ccccc56)c3C)CCC(C)(C)C4)C2)C1 [Example 2-27, 1-(6-(4-(3-hydroxy-1-naphthalenyl)-3,7,7-trimethyl-5,6,7,8-tetrahydro-2-quinolinyl)-2,6-diazaspiro[3,4]octan-2-yl)-2-propen-1-one]
67	187	> 5000	C=CC(=O)N1CC2(CCN(c3nc4c(c(-c5c(C)ccc6[nH]ncc56)c3C)CCC(C)(C)C4)C2)C1 [Example 2-28, 1-(6-(3,7,7-trimethyl-4-(5-methyl-1H-indazol-4-yl)-5,6,7,8-tetrahydro-2-quinolinyl)-2,6-diazaspiro[3.4]octan-2-yl)-2-propen-1-one]
53	54	2780	C=CC(=O)N1CC2(CCN(c3nc4c(c(-c5c(C(F)(F)F)ccc6[nH]ncc56)c3C#N)C[C@H]3C[C@@H]4C3(C)C)C2)C1 [Example 2-31, (1R,9R)-10,10-dimethyl-4-(2-(2-propenoyl)-2,6-diazaspiro[3.4]octan-6-yl)-6-(5-(trifluoromethyl)-1H-indazol-4-yl)-3-azatricyclo[7.1.1.0^2,7]undeca-2,4,6-triene-5-carbonitrile]
20	13	> 5000	C=CC(=O)N1CC2(CCN(c3nc4c(c(-c5c(C)c(Cl)cc6[nH]ncc56)c3C)COC(C)(C)C4)C2)C1 [Example 2-36, 1-(6-(4-(6-chloro-5-methyl-1H-indazol-4-yl)-3,7,7-trimethyl-7,8-dihydro-5H-pyrano[4,3-b]pyridin-2-yl)-2,6-diazaspiro[3.4]octan-2-yl)-2-propen-1-one]
67	157	3420	C=CC(=O)N1CC2(CCN(c3nc4c(c(-c5cc(O)cc6ccccc56)c3C#N)C3CCC4C3)C2)C1 [Example 2-38, (1R,8S)-6-(3-hydroxy-1-naphthalenyl)-4-(2-(2-propenoyl)-2,6-diazaspiro[3.4]octan-6-yl)-3-azatricyclo[6.2.1.0^2,7]undeca-2,4,6-triene-5-carbonitrile|(1S, 8R)-6-(3-hydroxy-1-naphthalenyl)-4-(2-(2-propenoyl)-2,6-diazaspiro[3.4]octan-6-yl)-3-azatricyclo[6.2.1.0^2,7]undeca-2,4,6-triene-5-carbonitrile]
28	175	> 5000	C=CC(=O)N1CC2(CCN(c3nc4c(c(-c5cc(O)cc6ncccc56)c3C#N)C[C@H]3C[C@@H]4C3(C)C)C2)C1 [Example 2-42, (1R,9R)-6-(7-hydroxy-5-quinolinyl)-10,10-dimethyl-4-(2-(2-propenoyl)-2,6-diazaspiro[3,4]octan-6-yl)-3-azatricyclo[7.1.1.0^2,7]undeca-2,4,6-triene-5-carbonitrile]
109	885	> 5000	C=CC(=O)N1CC2(CCN(c3nc4cc(OC)ccc4c(-c4c(C)ccc5[nH]ncc45)c3C)C2)C1 [Example 2-48, 1-(6-(7-methoxy-3-methyl-4-(5-methyl-1H-indazol-4-yl)-2-quinolinyl)-2,6-diazaspiro[3,4]octan-2-yl)-2-propen-1-one]
323	1210	> 5000	C=CC(=O)N1CC2(CCN(c3nc4cc(OC)ccc4c(-c4c(C)ccc5cn[nH]c45)c3C)C2)C1 [Example 2-49, 1-(6-(7-methoxy-3-methyl-4-(6-methyl-1H-indazol-7-yl)-2-quinolinyl)-2,6-diazaspiro[3.4]octan-2-yl)-2-propen-1-one]
466	2610	> 5000	C=CC(=O)N1CC2(CCN(c3nc4cc(OC)ccc4c(-c4c(C)ccc5cnn(C)c45)c3C)C2)C1 [Example 2-50, 1-(6-(4-(1,6-dimethyl-1H-indazol-7-yl)-7-methoxy-3-methyl-2-quinolinyl)-2,6-diazaspiro[3,4]octan-2-yl)-2-propen-1-one]
26	61	> 5000	C=CC(=O)N1CC2(CCN(c3cc4c(c(-c5cc(O)cc6ccccc56)c3C#N)OCCC4)C2)C1 [Example 2-52, 8-(3-hydroxy-1-naphthalenyl)-6-(2-(2-propenoyl)-2,6-diazaspiro[3.4]octan-6-yl)-3,4-dihydro-2H-chromene-7-carbonitrile]
186	1270	> 5000	C=CC(=O)N1CC2(CCN(c3nc4c(c(-c5cc(O)ccc5C)c3C)CCC(C)(C)C4)C2)C1 [Example 2-62, 1-(6-(4-(5-hydroxy-2-methylphenyl)-3,7,7-trimethyl-5,6,7,8-tetrahydro-2-quinolinyl)-2,6-diazaspiro[3,4]octan-2-yl)-2-propen-1-one]
39	432	> 5000	C=CC(=O)N1CC2(CCN(c3nc4c(c(-c5cc(O)ccc5Cl)c3C#N)C[C@H]3C[C@@H]4C3(C)C)C2)C1 [Example 2-64, (1R,9R)-6-(2-chloro-5-hydroxyphenyl)-10,10-dimethyl-4-(2-(2-propenoyl)-2,6-diazaspiro[3.4]octan-6-yl)-3-azatricyclo[7.1.1.0^2,7]undeca-2,4,6-triene-5-carbonitrile]
89	735	> 5000	C=CC(=O)N1CC2(CCN(c3nc4c(c(-c5cc(O)ccc5F)c3C#N)C[C@H]3C[C@@H]4C3(C)C)C2)C1 [Example 2-66, (1R,9R)-6-(2-fluoro-5-hydroxyphenyl)-10,10-dimethyl-4-(2-(2-propenoyl)-2,6-diazaspiro[3.4]octan-6-yl)-3-azatricyclo[7.1.1.0^2,7]undeca-2,4,6-triene-5-carbonitrile]
38	381	> 5000	C=CC(=O)N1CC2(CCN(c3nc4c(c(-c5cc(O)ccc5C)c3C#N)C[C@H]3C[C@@H]4C3(C)C)C2)C1 [Example 2-67, (1R,9R)-6-(5-hydroxy-2-methylphenyl)-10,10-dimethyl-4-(2-(2-propenoyl)-2,6-diazaspiro[3.4]octan-6-yl)-3-azatricyclo[7.1.1.0^2,7]undeca-2,4,6-triene-5-carbonitrile]
228	1940	> 5000	C=CC(=O)N1CC2(CCN(c3nc4c(c(-c5c(F)cccc5CO)c3C#N)C[C@H]3C[C@@H]4C3(C)C)C2)C1 [Example 2-73, (1R,9R)-6-(2-fluoro-6-(hydroxymethyl)phenyl)-10,10-dimethyl-4-(2-(2-propenoyl)-2,6-diazaspiro[3.4]octan-6-yl)-3-azatricyclo[7.1.1.0^2,7]undeca-2,4,6-triene-5-carbonitrile]
71	159	> 5000	C=CC(=O)N1CC2(CCN(c3nc4c(c(-c5cc(O)ccc5C)c3Cl)COC(C)(C)C4)C2)C1 [Example 2-79, 1-(6-(3-chloro-4-(5-hydroxy-2-methylphenyl)-7,7-dimethyl-7,8-dihydro-5H-pyrano[4,3-b]pyridin-2-yl)-2,6-diazaspiro[3.4]octan-2-yl)-2-propen-1-one]
33	17	12200	C=CC(=O)N1CC2(CCN(c3nc4c(c(-c5c(C)ccc6[nH]ncc56)c3Cl)COC(C)(C)C4)C2)C1 [Example 2-83, 1-(6-(3-chloro-7,7-dimethyl-4-(5-methyl-1H-indazol-4-yl)-7,8-dihydro-5H-pyrano[4,3-b]pyridin-2-yl)-2,6-diazaspiro[3.4]octan-2-yl)-2-propen-1-one]
19	70	2040	C=CC(=O)N1CC2(CCN(c3cc4c(c(-c5c(C)ccc6[nH]ncc56)c3C#N)CCCC4)C2)C1 [Example 2-93, 1-(5-methyl-1H-indazol-4-yl)-3-(2-(2-propenoyl)-2,6-diazaspiro[3.4]octan-6-yl)-5,6,7,8-tetrahydro-2-naphthalenecarbonitrile]
88	792	> 5000	C=CC(=O)N1CC2(CCN(c3cc4c(c(-c5c(C)ccc6[nH]ncc56)c3C#N)COCC4)C2)C1 [Example 2-95, 8-(5-methyl-1H-indazol-4-yl)-6-(2-(2-propenoyl)-2,6-diazaspiro[3.4]octan-6-yl)-3,4-dihydro-1H-2-benzopyran-7-carbonitrile]
232	246	> 5000	C=CC(=O)N1CC2(CCN(c3cc4c(c(-c5c(C)ccc6cnn(C)c56)c3C#N)COCC4)C2)C1 [Example 2-96, 8-(1,6-dimethyl-1H-indazol-7-yl)-6-(2-(2-propenoyl)-2,6-diazaspiro[3,4]octan-6-yl)-3,4-dihydro-1H-2-benzopyran-7-carbonitrile]
82	207	> 5000	C=CC(=O)N1CC2(CCN(c3cc4c(c(-c5c(C)ccc6cnn(C)c56)c3C#N)CCC(C)(C)C4)C2)C1 [Example 2-97, 1-(1,6-dimethyl-1H-indazol-7-yl)-6,6-dimethyl-3-(2-(2-propenoyl)-2,6-diazaspiro[3.4]octan-6-yl)-5,6,7,8-tetrahydro-2-naphthalenecarbonitrile]
55	110	> 5000	C=CC(=O)N1CC2(CCN(c3cc4c(c(-c5cc(O)cc6ccccc56)c3C#N)CCC(C)(C)C4)C2)C1 [Example 2-98, 3′-hydroxy-6,6-dimethyl-3-(2-(2-propenoyl)-2,6-diazaspiro[3,4]octan-6-yl)-5,6,7,8-tetrahydro[1,1′-binaphthalene]-2-carbonitrile]

— patent publication US20240059703A1 (AMGEN INC., priority 2021, published 2024)
